# Columns and labels:
# Assay in all cases: relative viability (nuclei count vs DMSO), 5 days (fraction); higher = more cells survive
# NCI-H1755 = tested on: NCI-H1755
# Procedure, shortened: (§1)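 Lung cancer cell lines in 1536-well plates were dosed by pin tool the day after seeding, either with one drug alone or with a fixed anchor-drug dose plus five library-drug doses (not always all listed) in √10 steps. After 5 days, cells were fixed and their nuclei stained in one step (final 0.05% Triton X-100, 1% formaldehyde, 1 ug/ml Hoechst), then counted on 4× images. Relative viability is the nuclei count in treated wells divided by that in vehicle wells. Values are medians of duplicate plates.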
# NCI-H1734 = tested on: NCI-H1734
# Procedure, shortened: as §1
# NCI-H1793 = tested on: NCI-H1793
# Procedure, shortened: as §1
# PC-3 [JPC-3] = tested on: PC-3 [JPC-3]
# Procedure, shortened: as §1
# NCI-H1944 = tested on: NCI-H1944
# Procedure, shortened: as §1
# NCI-H2228 = tested on: NCI-H2228
# Procedure, shortened: as §1
# UMC-11 = tested on: UMC-11
# Procedure, shortened: as §1
# EPLC-272H = tested on: EPLC-272H
# Procedure, shortened: as §1
# NCI-H1651 = tested on: NCI-H1651
# Procedure, shortened: as §1
# NCI-H2405 = tested on: NCI-H2405
# Procedure, shortened: as §1
# NCI-H1395 = tested on: NCI-H1395
# Procedure, shortened: as §1
# NCI-H2087 = tested on: NCI-H2087
# Procedure, shortened: as §1
# ChaGo-K-1 = tested on: ChaGo-K-1
# Procedure, shortened: as §1
# HCC-366 = tested on: HCC-366
# Procedure, shortened: as §1
# LU99A = tested on: LU99A
# Procedure, shortened: as §1
# LC-2-ad = tested on: LC-2-ad
# Procedure, shortened: as §1
# NCI-H3122 = tested on: NCI-H3122
# Procedure, shortened: as §1
# NCI-H2170 = tested on: NCI-H2170
# Procedure, shortened: as §1
# RERF-LC-KJ = tested on: RERF-LC-KJ
# Procedure, shortened: as §1
# LOU-NH91 = tested on: LOU-NH91
# Procedure, shortened: as §1
# CAL-12T = tested on: CAL-12T
# Procedure, shortened: as §1
# ABC-1 = tested on: ABC-1
# Procedure, shortened: as §1
# HCC-78 = tested on: HCC-78
# Procedure, shortened: as §1
# NCI-H460 = tested on: NCI-H460
# Procedure, shortened: as §1
smiles,measurement,setting,value
C[C@@H]1CN(CC(=O)Nc2ccc3c(c2)Cc2cccc(-c4cc(=O)cc(N5CCOCC5)o4)c2S3)C[C@H](C)O1 + Cc1cc(Nc2cc(N3CCN(C)CC3)nc(Sc3ccc(NC(=O)C4CC4)cc3)n2)n[nH]1 [Tozasertib] (partner 0.1 µM),relative viability,NCI-H1755; first compound 0.04 µM,0.603
same,relative viability,NCI-H1755; first compound 0.1265 µM,0.582
same,relative viability,NCI-H1755; first compound 0.4 µM,0.595
same,relative viability,NCI-H1755; first compound 4 µM,0.466
same,relative viability,NCI-H1734; first compound 0.04 µM,0.286
same,relative viability,NCI-H1734; first compound 0.1265 µM,0.238
same,relative viability,NCI-H1734; first compound 0.4 µM,0.261
same,relative viability,NCI-H1734; first compound 4 µM,0.205
same,relative viability,NCI-H1793; first compound 0.04 µM,0.279
same,relative viability,NCI-H1793; first compound 0.1265 µM,0.313
same,relative viability,NCI-H1793; first compound 0.4 µM,0.306
same,relative viability,NCI-H1793; first compound 4 µM,0.17
same,relative viability,PC-3 [JPC-3]; first compound 0.04 µM,0.883
same,relative viability,PC-3 [JPC-3]; first compound 0.1265 µM,0.862
same,relative viability,PC-3 [JPC-3]; first compound 0.4 µM,0.871
same,relative viability,PC-3 [JPC-3]; first compound 4 µM,0.74
same,relative viability,NCI-H1944; first compound 0.04 µM,0.273
same,relative viability,NCI-H1944; first compound 0.1265 µM,0.255
same,relative viability,NCI-H1944; first compound 0.4 µM,0.263
same,relative viability,NCI-H1944; first compound 4 µM,0.23
same,relative viability,NCI-H2228; first compound 0.04 µM,0.235
same,relative viability,NCI-H2228; first compound 0.1265 µM,0.214
same,relative viability,NCI-H2228; first compound 0.4 µM,0.245
same,relative viability,NCI-H2228; first compound 4 µM,0.162
same,relative viability,UMC-11; first compound 0.04 µM,0.208
same,relative viability,UMC-11; first compound 0.1265 µM,0.198
same,relative viability,UMC-11; first compound 0.4 µM,0.19
same,relative viability,UMC-11; first compound 4 µM,0.199
same,relative viability,EPLC-272H; first compound 0.04 µM,0.189
same,relative viability,EPLC-272H; first compound 0.1265 µM,0.237
same,relative viability,EPLC-272H; first compound 0.4 µM,0.256
same,relative viability,EPLC-272H; first compound 4 µM,0.243
same,relative viability,NCI-H1651; first compound 0.04 µM,0.683
same,relative viability,NCI-H1651; first compound 0.1265 µM,0.609
same,relative viability,NCI-H1651; first compound 0.4 µM,0.602
same,relative viability,NCI-H1651; first compound 4 µM,0.535
same,relative viability,NCI-H2405; first compound 0.04 µM,0.676
same,relative viability,NCI-H2405; first compound 0.1265 µM,0.766
same,relative viability,NCI-H2405; first compound 0.4 µM,0.703
same,relative viability,NCI-H2405; first compound 4 µM,0.695
same,relative viability,NCI-H1395; first compound 0.04 µM,0.696
same,relative viability,NCI-H1395; first compound 0.1265 µM,0.729
same,relative viability,NCI-H1395; first compound 0.4 µM,0.665
same,relative viability,NCI-H1395; first compound 4 µM,0.721
same,relative viability,NCI-H2087; first compound 0.04 µM,0.309
same,relative viability,NCI-H2087; first compound 0.1265 µM,0.249
same,relative viability,NCI-H2087; first compound 0.4 µM,0.333
same,relative viability,NCI-H2087; first compound 4 µM,0.228
same,relative viability,ChaGo-K-1; first compound 0.04 µM,0.264
same,relative viability,ChaGo-K-1; first compound 0.1265 µM,0.209
same,relative viability,ChaGo-K-1; first compound 0.4 µM,0.226
same,relative viability,ChaGo-K-1; first compound 4 µM,0.173
same,relative viability,HCC-366; first compound 0.04 µM,0.165
same,relative viability,HCC-366; first compound 0.1265 µM,0.132
same,relative viability,HCC-366; first compound 0.4 µM,0.0609
same,relative viability,HCC-366; first compound 4 µM,0.0509
same,relative viability,LU99A; first compound 0.04 µM,0.243
same,relative viability,LU99A; first compound 0.1265 µM,0.257
same,relative viability,LU99A; first compound 0.4 µM,0.246
same,relative viability,LU99A; first compound 4 µM,0.251
same,relative viability,LC-2-ad; first compound 0.04 µM,0.373
same,relative viability,LC-2-ad; first compound 0.1265 µM,0.454
same,relative viability,LC-2-ad; first compound 0.4 µM,0.467
same,relative viability,LC-2-ad; first compound 4 µM,0.44
same,relative viability,NCI-H3122; first compound 0.04 µM,0.4
same,relative viability,NCI-H3122; first compound 0.1265 µM,0.403
same,relative viability,NCI-H3122; first compound 0.4 µM,0.265
same,relative viability,NCI-H3122; first compound 4 µM,0.293
same,relative viability,NCI-H2170; first compound 0.04 µM,0.708
same,relative viability,NCI-H2170; first compound 0.1265 µM,0.764
same,relative viability,NCI-H2170; first compound 0.4 µM,0.719
same,relative viability,NCI-H2170; first compound 4 µM,0.614
same,relative viability,RERF-LC-KJ; first compound 0.04 µM,0.545
same,relative viability,RERF-LC-KJ; first compound 0.1265 µM,0.48
same,relative viability,RERF-LC-KJ; first compound 0.4 µM,0.496
same,relative viability,RERF-LC-KJ; first compound 4 µM,0.351
same,relative viability,LOU-NH91; first compound 0.04 µM,0.605
same,relative viability,LOU-NH91; first compound 0.1265 µM,0.649
same,relative viability,LOU-NH91; first compound 0.4 µM,0.69
same,relative viability,LOU-NH91; first compound 4 µM,0.62
same,relative viability,CAL-12T; first compound 0.04 µM,0.306
same,relative viability,CAL-12T; first compound 0.1265 µM,0.366
same,relative viability,CAL-12T; first compound 0.4 µM,0.296
same,relative viability,CAL-12T; first compound 4 µM,0.217
same,relative viability,ABC-1; first compound 0.1265 µM,0.159
same,relative viability,ABC-1; first compound 0.4 µM,0.184
same,relative viability,ABC-1; first compound 4 µM,0.16
same,relative viability,HCC-78; first compound 0.04 µM,0.397
same,relative viability,HCC-78; first compound 0.1265 µM,0.386
same,relative viability,HCC-78; first compound 0.4 µM,0.361
same,relative viability,HCC-78; first compound 4 µM,0.318
same,relative viability,NCI-H460; first compound 0.04 µM,0.393
same,relative viability,NCI-H460; first compound 0.1265 µM,0.397
same,relative viability,NCI-H460; first compound 0.4 µM,0.485
same,relative viability,NCI-H460; first compound 4 µM,0.0949

# From the supplement of paper PMC10307832
